Several values for one entry are separate records, joined by “and”; a condition that tells them apart may be missing. Equal values may be shown once. Inconclusive results and toxic doses are left out. Rule for the calls: active = survival T/C of 150% or more; inactive = T/C below 125% in these data.
System: P388 leukemia ip, CD2F1 mice, survival T/C
Assay: NCI In Vivo Anticancer Drug Screen. Data for tumor model P388 Leukemia (intraperitoneal) in CD2F1 (CDF1) mice
Settings: endpoint: median survival time, higher = longer survival
In short: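 Mice carrying the transplanted tumor received test compound or vehicle. Survival was recorded in each group, and the value is the treated-group measurement divided by that of the vehicle-treated control group.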

[1] = dose: 100.0 mg/kg/injection, schedule: Q04DX003 (ip), vehicle: saline with Tween-80
[2] = dose: 200.0 mg/kg/injection, schedule: Q04DX003 (ip), vehicle: saline with Tween-80
[3] = dose: 400.0 mg/kg/injection, schedule: Q04DX003 (ip), vehicle: saline with Tween-80
[4] = dose: 60.0 mg/kg/injection, schedule: Q01DX005 (ip), vehicle: saline with Tween-80
[5] = dose: 120.0 mg/kg/injection, schedule: Q01DX005 (ip), vehicle: saline with Tween-80
[6] = dose: 240.0 mg/kg/injection, schedule: Q01DX005 (ip), vehicle: saline with Tween-80
[7] = dose: 50.0 mg/kg/injection, schedule: Q01DX009 (ip), vehicle: Klucel (hydroxypropylcellulose) (HPC)
[8] = dose: 100.0 mg/kg/injection, schedule: Q01DX009 (ip), vehicle: Klucel (hydroxypropylcellulose) (HPC)
[9] = dose: 200.0 mg/kg/injection, schedule: Q01DX009 (ip), vehicle: Klucel (hydroxypropylcellulose) (HPC)
[10] = dose: 60.0 mg/kg/injection, schedule: Q01DX005 (ip), vehicle: Klucel (hydroxypropylcellulose) (HPC)
[11] = dose: 120.0 mg/kg/injection, schedule: Q01DX005 (ip), vehicle: Klucel (hydroxypropylcellulose) (HPC)
[12] = dose: 50.0 mg/kg/injection, schedule: Q01DX005 (ip), vehicle: Klucel (hydroxypropylcellulose) (HPC)
[13] = dose: 100.0 mg/kg/injection, schedule: Q01DX005 (ip), vehicle: Klucel (hydroxypropylcellulose) (HPC)

Measured: T/C

NC(=O)Oc1ccccc1
inactive: [1] 100 % of control | [2] 104 % of control | [3] 100 % of control

CCOC(=O)c1ccc(N=Cc2cccc([N+](=O)[O-])c2)cc1
inactive: [4] 91 % of control | [5] 89 % of control | [6] 90 % of control

Cc1ccc(C)[nH]1
inactive: dose: 12.5 mg/kg/injection, schedule: Q01DX001 (ip), vehicle: alcohol 109 % of control | dose: 25.0 mg/kg/injection, schedule: Q01DX001 (ip), vehicle: alcohol 111 % of control | dose: 50.0 mg/kg/injection, schedule: Q01DX001 (ip), vehicle: alcohol 101 % of control and 102 % of control

O=C(Cc1n[nH]c(=S)nc1CC(=O)c1cccnc1)c1cccnc1
inactive: [4] 100 % of control | [5] 96 % of control

CCSc1nc2ccc(N=C/C=C/c3ccccc3)cc2s1
inactive: [7] 110 % of control | [8] 98 % of control | [9] 110 % of control

Cc1ccc(NCN2C(=O)c3ccccc3C2=O)c(C)n1
inactive: [10] 92 % of control | [11] 89 % of control

CC1Cn2c(Cc3ccccc3)nnc2S1 (stereo not drawn)
inactive: [4] 104 % of control | [5] 93 % of control | [6] 100 % of control

C(/C=C/c1ccccc1)=C1SCCCS1
inactive: [1] 94 % of control | [2] 103 % of control | [3] 90 % of control

Cc1ccc(S(=O)(=O)OCCN(CCN(CCOS(=O)(=O)c2ccc(C)cc2)c2ccccc2)c2ccccc2)cc1
inactive: dose: 100.0 mg/kg/injection, schedule: Q04DX003 (ip), vehicle: Klucel (hydroxypropylcellulose) (HPC) 99 % of control | dose: 200.0 mg/kg/injection, schedule: Q04DX003 (ip), vehicle: Klucel (hydroxypropylcellulose) (HPC) 110 % of control | dose: 400.0 mg/kg/injection, schedule: Q04DX003 (ip), vehicle: Klucel (hydroxypropylcellulose) (HPC) 101 % of control

Cc1ccc2nc(NC(=S)NCCCCNC(=S)Nc3ccc4cc(C)ccc4n3)ccc2c1
inactive: [7] 98 % of control | [8] 94 % of control | [9] 89 % of control

O=C(N/N=C/c1ccccn1)N/N=C/c1ccccn1
inactive: dose: 12.5 mg/kg/injection, schedule: Q01DX009 (ip), vehicle: distilled water + Tween-80 102 % of control | dose: 25.0 mg/kg/injection, schedule: Q01DX009 (ip), vehicle: distilled water + Tween-80 103 % of control | dose: 50.0 mg/kg/injection, schedule: Q01DX009 (ip), vehicle: distilled water + Tween-80 113 % of control | dose: 100.0 mg/kg/injection, schedule: Q01DX009 (ip), vehicle: distilled water + Tween-80 104 % of control

O=C1Nc2ccccc2/C1=N/N=C/c1ccccc1O
inactive: [7] 91 % of control | [8] 86 % of control

CCSc1nc2ccc(NC(=O)/C=C/C(=O)O)cc2s1
inactive: [7] 103 % of control | [8] 90 % of control | [9] 95 % of control

c1c[se]c(-c2nc3ccccc3[nH]2)c1
inactive: dose: 12.5 mg/kg/injection, schedule: Q01DX005 (ip), vehicle: Klucel (hydroxypropylcellulose) (HPC) 99 % of control | dose: 25.0 mg/kg/injection, schedule: Q01DX005 (ip), vehicle: Klucel (hydroxypropylcellulose) (HPC) 107 % of control | [12] 110 % of control | [13] 107 % of control

CC(C)=CCc1c(O)ccc(C(=O)C2C(c3c(O)cc(-c4cc5ccc(O)cc5o4)cc3O)C=C(C)CC2c2ccc(O)cc2O)c1O (stereo not drawn)
inactive: dose: 3.75 mg/kg/injection, schedule: Q01DX005 (ip), vehicle: water 94 % of control | dose: 7.5 mg/kg/injection, schedule: Q01DX005 (ip), vehicle: water 103 % of control | dose: 15.0 mg/kg/injection, schedule: Q01DX005 (ip), vehicle: water 99 % of control | dose: 30.0 mg/kg/injection, schedule: Q01DX005 (ip), vehicle: water 110 % of control | dose: 60.0 mg/kg/injection, schedule: Q01DX005 (ip), vehicle: water 113 % of control

CCc1cc(/C=C2/OC(=O)c3ccccc32)cc(CC)c1O
inactive: dose: 100.0 mg/kg/injection, schedule: Q04DX002 (ip), vehicle: saline 101 % of control | dose: 200.0 mg/kg/injection, schedule: Q04DX002 (ip), vehicle: saline 100 % of control | dose: 400.0 mg/kg/injection, schedule: Q04DX002 (ip), vehicle: saline 100 % of control

O=C1C(Cl)=C(Cl)C(=O)C2=C1C1c3ccccc3C2c2ccccc21
inactive: dose: 100.0 mg/kg/injection, schedule: Q01DX009 (ip), vehicle: saline sonified 105 % of control | dose: 200.0 mg/kg/injection, schedule: Q01DX009 (ip), vehicle: saline sonified 110 % of control | dose: 400.0 mg/kg/injection, schedule: Q01DX009 (ip), vehicle: saline sonified 100 % of control

COC(=O)CC(=O)c1ccc(OCCOc2ccc(C(C)(C)CC(C)(C)C)cc2)c([N+](=O)[O-])c1
inactive: dose: 50.0 mg/kg/injection, schedule: Q04DX003 (ip), vehicle: saline sonified 100 % of control | dose: 100.0 mg/kg/injection, schedule: Q04DX003 (ip), vehicle: saline sonified 100 % of control | dose: 200.0 mg/kg/injection, schedule: Q04DX003 (ip), vehicle: saline sonified 104 % of control

CC(C)=NNC1=NC(CC(C)C)P(=O)(NCCCCCCNP2(=O)SC(NN=C(C)C)=NC2CC(C)C)S1 (stereo not drawn)
inactive: [10] 97 % of control | [11] 103 % of control | dose: 240.0 mg/kg/injection, schedule: Q01DX005 (ip), vehicle: Klucel (hydroxypropylcellulose) (HPC) 95 % of control

Nc1ccc(C(=O)CC(O)(C(F)(F)F)C(F)(F)F)cc1
inactive: dose: 75.0 mg/kg/injection, schedule: Q04DX003 (ip), vehicle: saline with Tween-80 95 % of control | dose: 150.0 mg/kg/injection, schedule: Q04DX003 (ip), vehicle: saline with Tween-80 95 % of control | dose: 300.0 mg/kg/injection, schedule: Q04DX003 (ip), vehicle: saline with Tween-80 100 % of control

O=C(O)C#Cc1cccnc1
inactive: [4] 106 % of control | [5] 98 % of control | [6] 91 % of control

Cc1ccc(C(=O)CSCC(=O)c2ccc(C)cc2)cc1
inactive: [12] 87 % of control | [13] 86 % of control | dose: 200.0 mg/kg/injection, schedule: Q01DX005 (ip), vehicle: Klucel (hydroxypropylcellulose) (HPC) 94 % of control

O=C(O)c1cnc2cc(C(F)(F)F)ccc2c1Nc1ccc2c(c1)OCO2
inactive: dose: 60.0 mg/kg/injection, schedule: Q01DX005 (ip), vehicle: Klucel + Tween-80 103 % of control | dose: 120.0 mg/kg/injection, schedule: Q01DX005 (ip), vehicle: Klucel + Tween-80 98 % of control | dose: 240.0 mg/kg/injection, schedule: Q01DX005 (ip), vehicle: Klucel + Tween-80 97 % of control

O=C(Nc1cc(C(F)(F)F)ccc1Cl)n1nc(Cl)c2ccc([N+](=O)[O-])cc21
inactive: dose: 50.0 mg/kg/injection, schedule: Q01DX009 (ip), vehicle: saline with Tween-80 102 % of control | dose: 100.0 mg/kg/injection, schedule: Q01DX009 (ip), vehicle: saline with Tween-80 104 % of control | dose: 200.0 mg/kg/injection, schedule: Q01DX009 (ip), vehicle: saline with Tween-80 95 % of control

Nc1nc(-c2cccnc2)cc(-c2cc(-c3cccnc3)nc(N)n2)n1
inactive: dose: 60.0 mg/kg/injection, schedule: Q01DX005 (ip), vehicle: saline 96 % of control | dose: 120.0 mg/kg/injection, schedule: Q01DX005 (ip), vehicle: saline 100 % of control

COc1cc(/C=C/C(=O)NCCCCN)ccc1O
inactive: [4] 105 % of control | [5] 101 % of control | [6] 95 % of control
